{"source": "paper PMC3215231", "about": "“Arcanolysin is a cholesterol-dependent cytolysin of the human pathogen Arcanobacterium haemolyticum” (BMC Microbiology, 2011)", "biological_target": "PFO (perfringolysin O), His-tagged PFO (Clostridium perfringens, UniProt P0C2E9)", "sequence (P0C2E9 29-500 limits assumed)": "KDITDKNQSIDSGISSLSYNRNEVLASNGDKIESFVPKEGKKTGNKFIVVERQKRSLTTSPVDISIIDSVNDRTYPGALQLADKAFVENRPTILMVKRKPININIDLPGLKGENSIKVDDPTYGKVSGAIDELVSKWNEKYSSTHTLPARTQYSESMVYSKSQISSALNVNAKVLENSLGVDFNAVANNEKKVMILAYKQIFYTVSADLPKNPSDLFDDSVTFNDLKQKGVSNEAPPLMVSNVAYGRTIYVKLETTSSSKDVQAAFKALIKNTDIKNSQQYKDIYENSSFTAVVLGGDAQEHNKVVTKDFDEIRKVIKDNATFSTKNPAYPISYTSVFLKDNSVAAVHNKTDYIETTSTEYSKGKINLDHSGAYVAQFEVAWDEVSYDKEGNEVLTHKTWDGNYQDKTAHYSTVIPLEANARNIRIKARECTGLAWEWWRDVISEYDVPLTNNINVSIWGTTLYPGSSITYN", "format": "biochemical", "data": [{"smiles": "CC(C)CCC[C@@H](C)[C@H]1CC[C@H]2[C@@H]3CC=C4C[C@@H](O)CC[C@]4(C)[C@H]3CC[C@]12C", "note": "[cholesterol]", "values": [{"measurement": "% activity retained at 0.5 μM cholesterol", "value": 7.6, "unit": "%"}]}]}
